# Legend:
# DPP-IV = DPP-IV (Homo sapiens, UniProt P27487); experiment: Enzymatic reaction with purified DPP-IV, LC-MS analysis of products; format: biochemical; conditions: 100 μM compound, 8.5 μg/mL DPP-IV, 37° C.; reaction product 2-aminobenzyl alcohol; FIG. 4
# Method: (§1) Next, enzymatic reactions were carried out under the following conditions using the three compounds synthesized and purified enzymes.
# (§2) Final compound concentration: 100 μM
# (§3) Final enzyme concentration: 4 nM (β-Gal), 8.5 μg/mL (DPP-IV), 10 U/mL (GGT)
# (§4) Reaction temperature: 37° C.
# (§5) (2) Enzymatic Reaction Using DPP-IV and GGT
# (§6) Instrument: 1260 Infinity (manufactured by Agilent Technologies, Inc.)
# (§7) Column: Poroshell 120, 4.6×100 mm (manufactured by Agilent Technologies, Inc.)
# (§8) Mobile phase A: water (0.01M ammonium formate)
# (§9) Mobile phase B: 80% acetonitrile/water (0.01M ammonium formate)
# [1] = tested on: H226 cells (high DPP-IV expression) and H460 cells (low DPP-IV expression); experiment: CCK-8 assay, cells with high and low DPP-IV expression; format: cell-based, human; conditions: H226 (high DPP-IV) vs H460 (low DPP-IV), 1-50 μM, 24 hours; FIG. 6
# Method: (§10) Next, it was verified whether compounds 1-3 can change the cell viability by functioning as a prodrug when administered to cells with high and low enzyme expression. The efficacy studies were carried out by using a general colorimetric method called CCK-8 assay (method for quantifying the dehydrogenase activity inside living cells through reduction of colorless WST-8 to orange formazan) to quantify the number of living cells. The CCK-8 assay evaluation method is described below.
# (§11) The B-galactosidase-activated prodrug was evaluated using HEK/lac Z cells (cells derived from human kidney cells, high β-Gal expression) and HEK293 cells (cells derived from human kidney cells, low β-Gal expression). The DPP-IV-activated prodrug was evaluated using H226 cells (human lung squamous cell carcinoma cells, high DPP-IV expression) and H460 cells (human non-small cell epithelial lung cancer cells, low DPP-IV expression). The GGT-activated prodrug was evaluated using SHIN3 cells (human ovarian cancer cells, high GGT expression) and H226 cells (human lung squamous cell carcinoma cells, low GGT expression).
# (§12) Each type of cell was seeded in 96-well plates (cell density: 1.0×10^4/well) and incubated overnight. […] After 2.5 hours, the 450 nm absorbance was measured by a plate reader, and the number of viable cells was quantified.
# [2] = tested on: SHIN3 cells (high GGT expression) and H226 cells (low GGT expression); experiment: CCK-8 assay, cells with high and low GGT expression; format: cell-based, human
# Method: as §10, §11
# Each type of cell was seeded in 96-well plates (cell density: 1.0×10^4/well) and incubated overnight. The medium was exchanged for fresh medium, and the synthesized derivatives were added (final concentration 1-50 μM, 0.5% DMSO, n=3). After culturing the cells for another 24 hours, a Cell Counting Kit-8 (10 μL/well, manufactured by […]) was added. After 2.5 hours, the 450 nm absorbance was measured by a plate reader, and the number of viable cells was quantified.
# Next, benzyl-position leaving group-converted derivatives were subjected to the CCK-8 assay described above.
# GGT = experiment: Enzymatic reaction with purified GGT, LC-MS analysis of products; format: biochemical
# Method: as §1, §2, §3, §4, §5, §6, §7, §8, §9
# Next, enzymatic reactions were carried out under the following conditions using the benzyl-position leaving group-converted derivatives synthesized and purified enzyme.
# Final enzyme concentration: 10 U/mL (GGT)
# Enzymatic reaction using GGT
# [3] = tested on: SHIN3 cells and H226 cells; experiment: Efficacy evaluation by flow cytometry (protocol 3); format: cell-based, human; conditions: 25 μM, 24-hr incubation; compared with +100 μM GGsTop and 0.25% DMSO control; FIG. 10
# Method: On the other hand, since it is impossible to quantitatively discuss the extent to which the survival rates of high-expression/low-expression cells have changed, the present inventors studied whether this could be evaluated using flow cytometry (FIG. 10).
# (Top) 25 μM model compound, (middle) 25 μM model compound+100 μM GGsTop, (bottom) 0.25% DMSO control. Analysis was carried out after 24-hr incubation.
# [4] = tested on: SHIN3 cells and H226 cells; experiment: Cell death observation by fluorescence imaging over time with EthD-1 (protocol 1); format: cell-based, human; conditions: SHIN3 vs H226 cultured separately, imaging over 24 hr; FIG. 8
# Text: Since changing the types of cells and standardizing the medium to RPMI-1640 made coculture possible, the aim then became to observe cell death under coculture conditions and to construct a quantitative method. It was decided to conduct these studies using compound 3 for GGT (gGlu-FMA) based on the results obtained thus far, and the possibility of visually observing cell death by observation of fluorescence using one type of cell was first explored as an initial study (FIG. 8).
# Scan mode: xyzt, x=512, y=512, z=4, t=24. Scale bar: 50 μm.
# [5] = tested on: cocultured SHIN3 cells and H226 cells; experiment: Cell death observation under coculture conditions, time-lapse fluorescence imaging with EthD-1 (protocol 2); format: cell-based, human; conditions: coculture of high and low GGT expression cells, 24 hr time-lapse imaging; FIG. 9
# SHIN3 cells = experiment: Administration study in peritoneal dissemination model mice; format: in vivo; conditions: 5 mg/kg intraperitoneally each day from day 7, imaged day 21 with gGlu-HMRG, vs PBS; FIG. 17
# Method: Peritoneal dissemination model mice were created by intraperitoneal administration of SHIN3 cells (cancer cell line derived from ovarian cancer, high GGT activity) suspended in PBS. From day seven after cell dissemination, 5 mg/kg of gGlu-FMA or PBS (control) was administered intraperitoneally each day. On day 21 after cell dissemination, gGlu-HMRG was administered intraperitoneally, and the mice were sacrificed ten minutes later. After laparotomy, fluorescence images were acquired by a Maestro in vivo imaging device (FIG. 16).
# β-Gal = β-Gal (Escherichia coli, UniProt P00722); experiment: Enzymatic reaction with purified β-galactosidase, LC-MS analysis of products; format: biochemical; conditions: 100 μM compound, 4 nM β-Gal, 37° C.; reaction product 2-hydroxybenzyl alcohol; FIG. 4
# Chain of β-Gal (P00722 2-1024): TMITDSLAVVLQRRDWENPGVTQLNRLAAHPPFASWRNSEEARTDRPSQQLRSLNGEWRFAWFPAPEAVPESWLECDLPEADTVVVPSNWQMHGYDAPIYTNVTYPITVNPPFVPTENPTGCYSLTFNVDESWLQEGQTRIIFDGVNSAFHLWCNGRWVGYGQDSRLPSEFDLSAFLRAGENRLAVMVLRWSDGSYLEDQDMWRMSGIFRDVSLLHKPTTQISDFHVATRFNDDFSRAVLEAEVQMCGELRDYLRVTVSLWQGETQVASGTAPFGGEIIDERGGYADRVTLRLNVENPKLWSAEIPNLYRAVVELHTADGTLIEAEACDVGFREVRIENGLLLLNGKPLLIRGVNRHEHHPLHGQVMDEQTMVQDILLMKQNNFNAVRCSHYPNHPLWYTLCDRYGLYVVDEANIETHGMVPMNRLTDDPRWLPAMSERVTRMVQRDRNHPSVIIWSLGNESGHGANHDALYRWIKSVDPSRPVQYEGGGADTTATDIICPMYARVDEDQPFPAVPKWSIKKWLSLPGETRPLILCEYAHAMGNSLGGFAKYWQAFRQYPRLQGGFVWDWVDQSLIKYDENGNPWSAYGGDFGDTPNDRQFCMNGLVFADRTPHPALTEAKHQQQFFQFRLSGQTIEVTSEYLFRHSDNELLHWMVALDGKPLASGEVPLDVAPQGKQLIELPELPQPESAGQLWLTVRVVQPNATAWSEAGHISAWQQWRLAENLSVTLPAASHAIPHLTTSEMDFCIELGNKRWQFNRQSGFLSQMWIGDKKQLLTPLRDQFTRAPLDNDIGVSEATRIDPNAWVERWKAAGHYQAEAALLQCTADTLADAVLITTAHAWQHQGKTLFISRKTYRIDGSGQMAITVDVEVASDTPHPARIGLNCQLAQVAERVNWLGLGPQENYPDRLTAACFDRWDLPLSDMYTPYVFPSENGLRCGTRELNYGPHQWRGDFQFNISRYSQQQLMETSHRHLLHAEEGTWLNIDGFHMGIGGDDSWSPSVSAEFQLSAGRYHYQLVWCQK
# Method: as §1, §2, §3, §4
# (1) Enzymatic Reaction Using β-Galactosidase
# Instrument: ACQUITY UPLC (manufactured by Waters Corporation)
# as §7, §8, §9
# HEK293 cells = experiment: CCK-8 assay, cells with low β-Gal expression; format: cell-based, human; conditions: 50 μM, after 24 hours, FIG. 5
# Method: as §10, §11, §12
# HEK/lac Z cells = experiment: CCK-8 assay, cells with high β-Gal expression; format: cell-based, human; conditions: FIG. 5
# Method: as §10, §11, §12
# Chain of DPP-IV (P27487 whole entry, species assumed): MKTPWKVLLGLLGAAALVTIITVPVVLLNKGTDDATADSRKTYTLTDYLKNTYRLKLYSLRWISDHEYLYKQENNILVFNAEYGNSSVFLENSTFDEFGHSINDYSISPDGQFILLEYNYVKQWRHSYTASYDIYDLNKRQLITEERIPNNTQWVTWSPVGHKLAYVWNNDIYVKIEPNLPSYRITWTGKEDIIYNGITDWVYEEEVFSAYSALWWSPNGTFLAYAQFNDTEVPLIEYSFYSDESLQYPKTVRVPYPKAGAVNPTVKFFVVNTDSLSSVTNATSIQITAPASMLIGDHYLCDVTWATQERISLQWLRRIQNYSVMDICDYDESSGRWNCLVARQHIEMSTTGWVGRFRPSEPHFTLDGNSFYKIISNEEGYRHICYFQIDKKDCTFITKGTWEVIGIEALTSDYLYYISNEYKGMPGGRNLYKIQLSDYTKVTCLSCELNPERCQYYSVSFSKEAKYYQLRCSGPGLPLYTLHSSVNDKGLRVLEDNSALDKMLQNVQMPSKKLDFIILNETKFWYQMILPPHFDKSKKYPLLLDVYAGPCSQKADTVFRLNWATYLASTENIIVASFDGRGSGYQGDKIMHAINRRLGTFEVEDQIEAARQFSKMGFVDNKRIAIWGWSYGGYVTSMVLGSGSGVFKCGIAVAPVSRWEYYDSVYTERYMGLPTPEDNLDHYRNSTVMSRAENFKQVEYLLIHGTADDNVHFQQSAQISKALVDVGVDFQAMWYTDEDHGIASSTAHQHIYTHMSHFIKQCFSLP
smiles,measurement,setting,value
NCC(=O)N1CCC[C@H]1C(=O)Nc1ccccc1CF [compound 2],cleavage by DPP-IV,DPP-IV,cleaved
same,changes in cell viability between cells with high and low enzyme expression,[1],changes in the cell viability were observed
"COP(=O)(CCC(N)C(=O)O)Oc1cccc(CC(=O)O)c1 (stereo not shown) [GGsTop, reference compound]",effect of GGT inhibitor on survival rate of cells treated with the GGT prodrug,"[2]; CCK-8, FIG. 7",completely restored the survival rate
same,effect of inhibitor on the GGT enzymatic reaction of the model compound,GGT; inhibitor added at 100 μM,inhibited
N[C@@H](CCC(=O)Nc1ccccc1CF)C(=O)O [compound 3],changes in cell viability between cells with high and low enzyme expression,"[2]; SHIN3 (high GGT) vs H226 (low GGT), 1-50 μM, 24 hours, FIG. 7",changes in the cell viability were observed
same,cell type selectivity,"[2]; SHIN3 vs H226, CCK-8, FIG. 7",high cell type selectivity
same,antitumor activity (CCK-8 assay),"[2]; concentration of 25 μM, FIG. 13",showed an effect
same,cleavage by GGT,"GGT; 100 μM compound, 10 U/mL GGT, 37° C., reaction product 2-aminobenzyl alcohol, FIG. 4",cleaved
same,cell death by flow cytometry (EthD-1 dead staining),[3],selective cell death of SHIN3 cells
same,cell death (EthD-1 dead cell staining),[4],more cell death occurred in SHIN3 cells
same,selective cell damage in coculture (EthD-1 dead cell staining),[5],selectively damages high-expression cells
same,tumors on the mesentery (macro and fluorescence images),SHIN3 cells,Tumors appear to be decreased overall
OCC1O[C@@H](Oc2ccccc2CF)C(O)C(O)[C@H]1O (stereo partly shown) [compound 1],cleavage by β-Gal,β-Gal,cleaved
same,survival rate,HEK293 cells,did not drop at all
same,survival rate,"HEK/lac Z cells; HEK/lac Z cells, 50 μM, after 24 hours",did not drop at all
same,difference in survival rate between high-expression and low-expression cells,"HEK/lac Z cells; HEK/lac Z vs HEK293, up to 50 μM, 24 hours",no significant difference

# — patent publication US11655269B2, “Prodrug-type anticancer agent using cancer-specific enzymatic activity” (The University of Tokyo, priority 2018, dated 2023)
